Here are results for four molecules from ChEMBL document CHEMBL1156519, “Roles for two aminopeptidases in vacuolar hemoglobin catabolism in Plasmodium falciparum” (J Biol Chem, 2007).

Calls of active or inactive are those of the source. No cut-off for these calls is given here. Peptide text beside a SMILES is read from it. * marks the point of attachment. CH2F = FC*

The nature of experiment [1]: Inhibition of DPAP1 assessed as blocking of release of beta-naphthylamine from Ala-Pro-Ala-betaNA substrate at 1 uM.
Experiment [2] in a line: Inhibition of DPAP1 assessed as blocking of release of beta-naphthylamine from Ala-Pro-Ala-betaNA substrate at 1 uM in presence of recombinant Plasmodium falciparum aminopeptidase P.
The subject of experiment [3] is Plasmodium falciparum. In words: Antimalarial activity as inhibition of Plasmodium falciparum 3D7 replication in medium + isoleucine after 65 hrs. In kind it is functional, organism-based. As to conditions: 3D7, 65 h.
Experiment [4] deals with Plasmodium falciparum. The experiment in a line: Antimalarial activity as inhibition of Plasmodium falciparum 3D7 replication in medium with all amino acids after 65 hrs. In kind it is functional, organism-based. As to conditions: 3D7, 65 h.
Experiment [5] has as its system Plasmodium falciparum. In words: Antimalarial activity as DNA content of ring stage Plasmodium falciparum 3D7 in medium + isoleucine by flow cytometry. The experiment is classed as functional, organism-based.
Experiment [6] deals with Plasmodium falciparum. In words: Antimalarial activity as DNA content of ring stage Plasmodium falciparum 3D7 in medium with all amino acids by flow cytometry. The experiment is classed as functional, organism-based.
The subject of experiment [7] is Plasmodium falciparum. In words: Inhibition of aminopeptidase N in Plasmodium falciparum food vacuole extract.

For the molecule `CC(C)CC(=O)N[C@H](C(=O)N[C@H](C(=O)N[C@@H](CC(C)C)[C@@H](O)CC(=O)N[C@@H](C)C(=O)N[C@@H](CC(C)C)[C@@H](O)CC(=O)O)C(C)C)C(C)C`, the result in experiment [1] was inactive.

For `N=C(N)NCCC[C@H](NC(=O)[C@@H]1CCCN1)C(=O)CF` (H-Pro-Arg-CH2F), the outcome in experiment [1] and in experiment [2] was Active.

Usually EC50 stands for the concentration giving half of the maximal effect. Consider `CC(C)C[C@H](NC(=O)[C@@H](O)[C@H](N)Cc1ccccc1)C(=O)O` [UBENIMEX], for which the values for the half-maximal effective concentration (EC50) in experiment [3] and in experiment [4] were 900 nM and 1800 nM, respectively. For the same molecule, the result in experiment [1] and in experiment [2] was inactive. Besides, the outcome in experiment [5], in experiment [6] and in experiment [7] was Active.

For `CC(C)C[C@H](NC(=O)[C@H]1O[C@@H]1C(=O)O)C(=O)NCCCCN=C(N)N`, the outcome in experiment [1] and in experiment [2] was inactive.
